Data taken from paper PMC9501014, “Amaryllidaceae-Type Alkaloids from Pancratium maritimum: Apoptosis-Inducing Effect and Cell Cycle Arrest on Triple-Negative Breast Cancer Cells” (Molecules, 2022).
Read-outs that look alike come from different tables or passages of the source.

What was measured:
MCF-7 cells = experiment: Sulforhodamine B antiproliferative assay, MCF-7; assay type: cell-based, human; details: for IC50: sulforhodamine B assay, 48 h of treatment, read-out: IC50 MCF-7 (C); for SI E/C / SI D/C: selectivity index; for SI E/C: HFF-1 vs MCF-7; for SI D/C: MCF12A vs MCF-7
Procedure: (§1) The antiproliferative effect of the isolated compounds (1–11) was investigated by the sulforhodamine B assay against human triple-negative breast cancer cell lines (MDA-MB-468 and MDA-MB-231) and breast ductal carcinoma cells (MCF-7) and the non-tumorigenic fibroblast (HFF-1) and breast cell lines (MCF12A). The IC50 values were determined after 48 h of treatment (Table 1).
(§2) Human breast adenocarcinoma MDA-MB-231, MDA-MB-468, and MCF-7 cell lines and non-tumorigenic foreskin fibroblast (HFF-1) and breast (MCF12A) cell lines were purchased from American Type Culture Collection (ATCC, Rockville, MD, USA). All cancer cell lines, except MCF12A, were routinely cultured in RPMI-1640 medium with glutamine from Corning (VWR, Carnaxide, Portugal) supplemented with 10% fetal bovine serum (FBS) from Biowest (Labclinics, Barcelona, Spain). MCF12A cells were cultured in a 1:1 mixture of Dulbecco’s modified Eagle’s medium and Ham’s F12 medium, 20 ng/mL human epidermal growth factor, 100 ng/mL cholera toxin, 0.01 mg/mL bovine insulin, and 500 ng/mL hydrocortisone and supplemented with 10% FBS. All cells were maintained in a humidified incubator at 37 °C with 5% CO2. All cells were routinely tested for mycoplasma contamination using the MycoAlertTM PLUS detection kit (Lonza, Basel, Switzerland).
(§3) Human cell lines were seeded in 96-well plates at a density of 5.0 × 10^3 (MDA-MB-231, MCF-7, HFF-1, and MCF12A) and 7.5 × 10^3 (MDA-MB-468) cells/well and allowed to adhere for 24 h. Cells were treated with serial dilutions of compounds (ranging from 0.1 to 40 μM) for an additional 48 h. Effect on cell proliferation was measured by sulforhodamine B assay, as described in [33], and the half-maximal inhibitory concentration (IC50) was then determined for each cell line using the GraphPad Prism software version 7.0 (La Jolla, CA, USA).

MCF12A cells = experiment: Sulforhodamine B antiproliferative assay, non-tumorigenic breast MCF12A; assay type: cell-based; details: Homo sapiens, MCF-12A, 48 h of treatment, read-out: IC50 MCF12A (D)
Procedure: as §1, §2, §3

HFF-1 cells = experiment: Sulforhodamine B antiproliferative assay, non-tumorigenic fibroblast HFF-1; assay type: cell-based; details: Homo sapiens, 48 h of treatment, read-out: IC50 HFF-1 (E)
Procedure: as §1, §2, §3

MDA-MB-468 cells = experiment: Sulforhodamine B antiproliferative assay, MDA-MB-468; assay type: cell-based, human; details: for IC50: sulforhodamine B assay, 48 h of treatment; for SI E/B / SI D/B: selectivity index; for SI E/B: HFF-1 vs MDA-MB-468; for SI D/B: MCF12A vs MDA-MB-468
Procedure: as §1, §2, §3

[1] = test system: breast cancer cell lines (MDA-MB-231, MDA-MB-468, MCF-7); experiment: Sulforhodamine B assay, all breast cancer cell lines; assay type: cell-based; details: Homo sapiens, read-out: IC50 values against all breast cancer cell lines
Procedure: Aiming to find Amaryllidaceae alkaloids against breast cancer, including the highly aggressive triple-negative breast cancer, the phytochemical study of Pancratium maritimum was carried out. Several Amaryllidaceae-type alkaloids, bearing scaffolds of the haemanthamine-, homolycorine-, lycorine-, galanthamine-, and tazettine-type were isolated (3–11), along with one alkamide (2) and a phenolic compound (1). The antiproliferative effect of compounds (1–11) was evaluated by the sulforhodamine B assay against triple-negative breast cancer cell lines MDA-MB-231 and MDA-MB-468, breast cancer cells MCF-7, and the non-malignant fibroblast (HFF-1) and breast (MCF12A) cell lines. […] The homolycorine-type alkaloid 7 was selected for further investigation in MDA-MB-231 cells. In the annexin-V assay, compound 7 increased cell death by apoptosis, which was substantiated, in western blot analyses, by the increased expression of the pro-apoptotic protein Bax, and the decreased expression of the anti-apoptotic protein Bcl-xL. Consistently, it further stimulated mitochondrial reactive oxygen species (ROS) generation. The antiproliferative effect of compound 7 was also associated with G2/M cell cycle arrest, which was supported by an increase in the p21 protein expression levels.
as §3

MDA-MB-231 cells [2] = test system: MDA-MB-231 cells; parameters: method as in PMID 28756149; details: previous studies ref 30; cited from earlier work
MDA-MB-231 cells [3] = experiment: Sulforhodamine B antiproliferative assay, MDA-MB-231; assay type: cell-based, human; details: for IC50: sulforhodamine B assay, 48 h of treatment, read-out: IC50 MDA-MDB-231 (A); for SI E/A / SI D/A: selectivity index; for SI E/A: HFF-1 vs MDA-MB-231; for SI D/A: MCF12A vs MDA-MB-231
Procedure: as §1, §2, §3

[4] = range over the four alkaloids and MDA-MB-231, MDA-MB-468, MCF-7

| SMILES | SI E/C (MCF-7 cells) | IC50 (MCF12A cells) [nM] | IC50 (HFF-1 cells) [nM] | SI E/B (MDA-MB-468 cells) | SI D/B (MDA-MB-468 cells) | IC50 (MDA-MB-231 cells [3]; Homo sapiens, MDA-MB-231, 48 h) [nM] | SI E/A (MDA-MB-231 cells [3]) | SI D/A (MDA-MB-231 cells [3]) | other results |
| --- | --- | --- | --- | --- | --- | --- | --- | --- | --- |
| COC1C=CC23c4cc5c(cc4CN(CC2O)C3C1)OCO5 (stereo not drawn) [Compound 11, haemanthamine] | 1.7 | 6500 ± 1100 | 2700 ± 720 | 0.71 | 1.71 | 3950 | 0.68 | 1.64 | IC50 (MCF-7 cells; Homo sapiens, MCF7): 1600 ± 100 nM; IC50 (MDA-MB-468 cells; Homo sapiens, MDA-MB-468): 3800 ± 400 nM; IC50 [1]: 730 to 16300 nM; antiproliferative activity against MDA-MB-231 breast cancer cells (MDA-MB-231 cells [2]): antiproliferative activity; IC50 (MDA-MB-231 cells [3]): 3900 ± 970 nM |
| CO[C@@H]1C=C[C@@]23c4cc5c(cc4[C@@H](O)N(C[C@H]2O)[C@H]3C1)OCO5 [Compound 3, haemanthidine] | 1.01 | 5000 ± 500 | 2700 ± 150 | 0.78 | 1.42 | 4880 | 0.56 | 1.02 | IC50 (MCF-7 cells; Homo sapiens, MCF7, 48 h): 2700 ± 100 nM; SI D/C (MCF-7 cells): 1.85; IC50 (MDA-MB-468 cells; Homo sapiens, MDA-MB-468, 48 h): 3500 ± 300 nM; IC50 [1, 4]: 730 to 16300 nM; antiproliferative activity against MDA-MB-231 breast cancer cells (MDA-MB-231 cells [2]): antiproliferative activity; IC50 (MDA-MB-231 cells [3]): 4900 ± 1160 nM |
| O[C@H]1[C@H]2c3cc4c(cc3CN3CCC(=C[C@@H]1O)[C@H]23)OCO4 [Compound 5, lycorine] | 1.78 | 3000 ± 300 | 1300 ± 300 | 0.91 | 2.11 | 920 | 1.41 | 3.26 | IC50 (MCF-7 cells; Homo sapiens, MCF7, 48 h): 730 nM; IC50 (MCF-7 cells): 700 ± 10 nM; IC50 (MDA-MB-468 cells; Homo sapiens, MDA-MB-468, 48 h): 1420 nM; IC50 (MDA-MB-468 cells): 1400 ± 10 nM; IC50 [1, 4]: 730 to 16300 nM; antiproliferative activity against MDA-MB-231 breast cancer cells (MDA-MB-231 cells [2]): antiproliferative activity; IC50 (MDA-MB-231 cells [3]): 900 ± 200 nM |
| COc1cc(O)c(C(C)=O)c(OC)c1 [Compound 1, 4,6-dimethoxy-2-hydroxy acetophenone] | – | – | – | – | – | > 40000 | – | – | – |
| CO[C@@H]1C=C[C@@]23c4cc5c(cc4CO[C@]2(O)CN(C)[C@H]3C1)OCO5 [Compound 10, tazettine] | – | – | – | – | – | 39000 ± 1410 | – | – | – |
| COc1cc([C@@H]2c3cc4c(cc3[C@@H](O[C@@H]3O[C@@H]5CO[C@@H](C)O[C@H]5[C@H](O)[C@H]3O)[C@H]3COC(=O)[C@H]23)OCO4)cc(OC)c1O [Etoposide, reference compound] | 1.23 | 2300 ± 130 | 3800 ± 90 | 2.23 | 1.35 | 2900 ± 100 | 1.31 | 0.79 | IC50 (MCF-7 cells; Homo sapiens, MCF7, 48 h): 3100 ± 50 nM; SI D/C (MCF-7 cells): 0.74; IC50 (MDA-MB-468 cells; Homo sapiens, MDA-MB-468, 48 h): 1700 ± 50 nM |
| CN1CCC2=C[C@H](O)C3OC(=O)c4cc5c(cc4C3C21)OCO5 (stereo partly drawn) [Compound 4, hippeastrine] | – | – | – | – | – | 24700 ± 4300 | – | – | – |
| COc1cc2c(cc1O)C(=O)OC1CC=C3CCN(C)C3C21 (stereo not drawn) [Compound 9, 8-O-demethylhomolycorine] | – | – | – | – | – | > 40000 | – | – | – |
| COc1ccc2c3c1O[C@H]1C[C@@H](O)C=C[C@@]31C(O)CN(C)C2 (stereo partly drawn) [Compound 6, 11α-hydroxygalanthamine] | – | – | – | – | – | > 40000 | – | – | – |
| COc1cc(/C=C/C(=O)NCCc2ccc(O)cc2)ccc1O [Compound 2, N-trans-feruloyl-tyramine] | – | – | – | – | – | > 40000 | – | – | – |
| COc1ccc2c3c1O[C@H]1C[C@H](O)C=C[C@@]31CCN(C)C2 [Compound 8, epi-galanthamine] | – | – | – | – | – | > 40000 | – | – | – |
